Source: US20200223839A1, “FLUORO-CONTAINING COMPOUNDS, USE AND PREPARATION THEREOF” (JIANGSU YINGKEBEITA YIYAOKEJI CO. LTD, priority 2017, published 2020)

Assays:
Assay type in all cases: cell-based
BT474 = assay: Cell culture and cytotoxicity assay (CTG), BT474; conditions: Homo sapiens, BT-474, BT474, exposure 96 hours
Procedure: The assayed compounds each was dissolved in DMSO with a final concentration of 10 mM or 40 mM and stored at −20° C. Tumor cell lines A549 (7,000 cells/well), BT474 (12,000 cells/well), MDA-MB-468 (12,000 cells/well), and HCC1937 (6,000 cells/well) were seeded on 96-well plates. And the cells were pre-incubated at 37° C./5% CO2 for 24 hours. The cells were exposed to different concentrations of the assay compounds (from 400 μM to 782 nM, from 200 μM to 391 nM, from 100 μM to 196 nM, and from 50 μM to 98 nM) for the following time:
After incubation, 100 μL from each well was discarded and CTG base (Proega, G7571, 50 μL) was added and the mixture was agitated for 2 minutes. The mixtures were stored in a dark room for 10 minutes and the viability was analyzed with Multiskan microplate reader.

SK-OV-3 = assay: Cytotoxicity assay by the CTG method, SK-OV-3; conditions: Homo sapiens, SK-OV-3, Ovarian cancer, 72 h
Procedure: (§1) The corresponding cells were harvested from flask into cell culture medium and the cell number were counted. The cells were diluted with culture medium to the desired density and 40 μL of cell suspension was added into each well of 384-well cell culture plate as designated. The plates were covered with lid and placed in room temperature for 30 minutes without shaking and then were transferred plates into 37° C. 5% CO2 incubator overnight for cell attachment.
(§2) Compound preparation and treatment: Test compounds were received or dissolved at 30 mM stock solution and control compound Staurosporine was stored as 10 mM and 1 mM concentration. 45 uL of stock solution was transferred to a 384 pp-plate. 3 fold, 10-point dilution were performed via transferring 15 uL compound into 30 μL DMSO by using TECAN (EVO200) liquid handler. The plates were spun at room temperature at 1,000 RPM for 1 minute and shaken at a plate shaker for 2 minutes. […]
(§3) The plate from incubators were placed and equilibrated at room temperature for 15 minutes. […] 40 μL of CellTiter-Glo reagent were transferred into each well to be detected (at 1:1 to culture medium). Then the plates were placed at room temperature for 30 min followed by reading on EnSpire.
(§4) The inhibition activity was calculated following the formula below: […]
(§5) The IC50 were calculated by fitting the Curve using Xlfit (v5.3.1.3): […]

NCI-H446 = assay: Cytotoxicity assay by the CTG method, NCI-H446; conditions: Homo sapiens, NCI-H446, Lung cancer, 72 h
Procedure: as §1, §2, §3, §4, §5

COLO205 = assay: Cytotoxicity assay by the CTG method, COLO205; conditions: Homo sapiens, COLO 205, COLO205, Colon cancer, 72 h
Procedure: as §1, §2, §3, §4, §5

WM-266-4 = assay: Cytotoxicity assay by the CTG method, WM-266-4; conditions: Homo sapiens, WM-266-4, Melanoma, 72 h
Procedure: as §1, §2, §3, §4, §5

With `Cc1ccc(S(=O)(=O)Nc2nc3ccccc3nc2Nc2ccc3nsnc3c2)cc1F` [Compound 4f, N-[3-(benzo[1,2,5]thiadiazol-5-ylamino)-quinoxalin-2-yl]-3-fluoro-4-methyl-benzenesulfonamide] the IC50 (BT474) was 12500 to 25000 nM, the IC50 (SK-OV-3) was 9.37 µM and the IC50 (NCI-H446) was 3.92 µM. The IC50 (COLO205) was 2.99 µM and the IC50 (WM-266-4) was 9.1 µM.
